Laboratory results as given in PubChem BioAssay AID256 (DTP/NCI, 2004).
Values joined by “and” are separate entries in the source; they are usually repeats but may differ in a detail not shown here. Equal entries are not always repeated. Toxic doses and inconclusive results are not listed. How the source made its calls: active means survival T/C of 150% or more; inactive means T/C below 125% in these data.

System: CD2F1 mice, L1210 leukemia ip, survival T/C
Assay: NCI In Vivo Anticancer Drug Screen. Data for tumor model L1210 Leukemia (intraperitoneal) in CD2F1 (CDF1) mice
Settings: endpoint: mean survival time, higher = longer survival
Outline: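 Each value reflects a quotient of treated over vehicle control outcomes in mice with a transplanted tumor.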

[1] = dose: 100.0 mg/kg/injection, schedule: Q01DX009 (ip), vehicle: Klucel (hydroxypropylcellulose) (HPC)
[2] = dose: 100.0 mg/kg/injection, schedule: Q01DX009 (ip), vehicle: saline with Tween-80
[3] = dose: 200.0 mg/kg/injection, schedule: Q01DX009 (ip), vehicle: saline with Tween-80
[4] = dose: 400.0 mg/kg/injection, schedule: Q01DX009 (ip), vehicle: saline with Tween-80
[5] = dose: 1.56 mg/kg/injection, schedule: Q01DX009 (ip), vehicle: saline
[6] = dose: 25.0 mg/kg/injection, schedule: Q01DX009 (ip), vehicle: saline
[7] = dose: 50.0 mg/kg/injection, schedule: Q01DX009 (ip), vehicle: saline
[8] = dose: 100.0 mg/kg/injection, schedule: Q01DX009 (ip), vehicle: saline
[9] = dose: 200.0 mg/kg/injection, schedule: Q01DX009 (ip), vehicle: saline
[10] = dose: 100.0 mg/kg/injection, schedule: Q04DX003 (ip), vehicle: saline with Tween-80
[11] = dose: 200.0 mg/kg/injection, schedule: Q04DX003 (ip), vehicle: saline with Tween-80
[12] = dose: 400.0 mg/kg/injection, schedule: Q04DX003 (ip), vehicle: saline with Tween-80

Measured: T/C

OC1CCCC2CCC[N-]C12.OC1CCCC2CCC[N-]C12.[Mn+2] (centres undefined)
inactive: dose: 25.0 mg/kg/injection, schedule: Q01DX009 (ip), vehicle: Klucel (hydroxypropylcellulose) (HPC) 104 % of control | dose: 50.0 mg/kg/injection, schedule: Q01DX009 (ip), vehicle: Klucel (hydroxypropylcellulose) (HPC) 115 % of control | [1] 104 % of control

CCOC(=O)CC(C)(O)Cc1ccccc1 (centres undefined)
inactive: dose: 100.0 mg/kg/injection, schedule: Q04DX003 (ip), vehicle: acetone 96 % of control | dose: 200.0 mg/kg/injection, schedule: Q04DX003 (ip), vehicle: acetone 87 % of control | dose: 400.0 mg/kg/injection, schedule: Q04DX003 (ip), vehicle: acetone 102 % of control

OCCOc1cccc(OCCO)c1
inactive: [2] 96 % of control | [3] 96 % of control | [4] 115 % of control

CN(Cc1cnc2nc(N)nc(N)c2n1)c1ccc(C(=O)N[C@@H](CCC(=O)O)C(N)=O)cc1
inactive: dose: 3.0 mg/kg/injection, schedule: Q01DX009 (ip), vehicle: sodium bicarbonate 98 % of control | dose: 6.0 mg/kg/injection, schedule: Q01DX009 (ip), vehicle: sodium bicarbonate 100 % of control | dose: 12.0 mg/kg/injection, schedule: Q01DX009 (ip), vehicle: sodium bicarbonate 111 % of control | dose: 50.0 mg/kg/injection, schedule: Q01DX009 (ip), vehicle: sodium bicarbonate 114 % of control

NC1=NCN2C(=N1)OC1C(O)C(CO)OC12 (centres undefined)
inactive: [5] 94 % of control and 106 % of control | dose: 3.12 mg/kg/injection, schedule: Q01DX009 (ip), vehicle: saline 91 % of control and 102 % of control | dose: 6.25 mg/kg/injection, schedule: Q01DX009 (ip), vehicle: saline 91 % of control and 103 % of control | dose: 12.5 mg/kg/injection, schedule: Q01DX009 (ip), vehicle: saline 91 % of control | [6] 91 % of control and 100 % of control | [7] 91 % of control and 97 % of control | [8] 92 % of control and 96 % of control | [9] 88 % of control and 100 % of control

CO[C@@]12[C@@H]3N[C@@H]3CN1C1=C(C(=O)C(NCCN3CCOCC3)=C(C)C1=O)[C@@H]2COC(N)=O
inactive: dose: 1.5 mg/kg/injection, schedule: Q01DX001 (ip), vehicle: water 100 % of control | dose: 3.0 mg/kg/injection, schedule: Q01DX001 (ip), vehicle: water 101 % of control | dose: 6.0 mg/kg/injection, schedule: Q01DX001 (ip), vehicle: water 105 % of control | dose: 12.0 mg/kg/injection, schedule: Q01DX001 (ip), vehicle: water 106 % of control | dose: 24.0 mg/kg/injection, schedule: Q01DX001 (ip), vehicle: water 103 % of control

C=CC1CC2C=CC1C2 (centres undefined) (tested in a mixture with another compound)
inactive: dose: 80.5 mg/kg/injection, schedule: Q01DX009 (ip), vehicle: saline with Tween-80 106 % of control | dose: 161.0 mg/kg/injection, schedule: Q01DX009 (ip), vehicle: saline with Tween-80 90 % of control

O=[N+]([O-])c1ccc(SC(=S)N(c2ccccc2)c2ccccc2)c([N+](=O)[O-])c1
inactive: dose: 100.0 mg/kg/injection, schedule: Q01DX001 (ip), vehicle: Klucel (hydroxypropylcellulose) (HPC) 87 % of control | dose: 200.0 mg/kg/injection, schedule: Q01DX001 (ip), vehicle: Klucel (hydroxypropylcellulose) (HPC) 91 % of control | dose: 400.0 mg/kg/injection, schedule: Q01DX001 (ip), vehicle: Klucel (hydroxypropylcellulose) (HPC) 100 % of control

CCOC(=O)/C=C\C1=CCCC1
inactive: [7] 102 % of control | [8] 98 % of control | [9] 102 % of control

OC1CCC(O)C2C3CCC(C3)C12 (centres undefined)
inactive: [2] 98 % of control | [3] 100 % of control | [4] 102 % of control

O=C(O)CCNc1ccc2c(c1)B(O)OC2
inactive: [10] 98 % of control | [11] 101 % of control | [12] 98 % of control

CCCCCCCCCCCCCCCC[n+]1ccccc1
inactive: dose: 0.78 mg/kg/injection, schedule: Q01DX009 (ip), vehicle: saline 112 % of control | [5] 120 % of control | dose: 3.13 mg/kg/injection, schedule: Q01DX009 (ip), vehicle: saline 120 % of control

[O-][n+]1c(CN2CCCCC2)nc2cccc3c2c1-c1ccccc1-3
inactive: dose: 12.5 mg/kg/injection, schedule: Q01DX009 (ip), vehicle: saline with Tween-80 104 % of control | dose: 25.0 mg/kg/injection, schedule: Q01DX009 (ip), vehicle: saline with Tween-80 103 % of control | dose: 50.0 mg/kg/injection, schedule: Q01DX009 (ip), vehicle: saline with Tween-80 103 % of control | [2] 113 % of control | [3] 109 % of control

CCOC(=O)CCC(NC(=O)OCCNCCCl)C(=O)OCC (centres undefined)
inactive: dose: 40.0 mg/kg/injection, schedule: Q01DX Z (ip), vehicle: saline 100 % of control | dose: 80.0 mg/kg/injection, schedule: Q01DX Z (ip), vehicle: saline 96 % of control | dose: 160.0 mg/kg/injection, schedule: Q01DX Z (ip), vehicle: saline 103 % of control | dose: 320.0 mg/kg/injection, schedule: Q01DX Z (ip), vehicle: saline 117 % of control

C[n+]1cccc(NC(=O)COc2ccc(Cl)c(Cl)c2)c1
inactive: dose: 25.0 mg/kg/injection, schedule: Q04DX003 (ip), vehicle: saline with Tween-80 106 % of control | dose: 50.0 mg/kg/injection, schedule: Q04DX003 (ip), vehicle: saline with Tween-80 104 % of control | [10] 97 % of control and 104 % of control

O=C1C2CCN(CC2)C1CN1CCC2(CC1)C(=O)NCN2c1ccccc1 (centres undefined)
inactive: dose: 50.0 mg/kg/injection, schedule: Q04DX002 (ip), vehicle: saline with Tween-80 93 % of control | dose: 100.0 mg/kg/injection, schedule: Q04DX002 (ip), vehicle: saline with Tween-80 112 % of control

CC(C)=C/C(C)=C(/C#N)C(=O)OC(C)C
inactive: dose: 75.0 mg/kg/injection, schedule: Q01DX001 (ip), vehicle: saline 97 % of control | dose: 150.0 mg/kg/injection, schedule: Q01DX001 (ip), vehicle: saline 97 % of control

COc1ccccc1/C=N/NC(=O)c1ccccc1
inactive: [1] 102 % of control | dose: 100.0 mg/kg/injection, schedule: Q04DX003 (ip), vehicle: Klucel (hydroxypropylcellulose) (HPC) 91 % of control | dose: 200.0 mg/kg/injection, schedule: Q01DX009 (ip), vehicle: Klucel (hydroxypropylcellulose) (HPC) 96 % of control | dose: 200.0 mg/kg/injection, schedule: Q04DX003 (ip), vehicle: Klucel (hydroxypropylcellulose) (HPC) 96 % of control | dose: 400.0 mg/kg/injection, schedule: Q01DX009 (ip), vehicle: Klucel (hydroxypropylcellulose) (HPC) 108 % of control | dose: 400.0 mg/kg/injection, schedule: Q04DX003 (ip), vehicle: Klucel (hydroxypropylcellulose) (HPC) 94 % of control

CCCN1CCN(c2ccccc2)CC1
inactive: [6] 103 % of control | [7] 103 % of control | [8] 96 % of control | [10] 103 % of control

c1ccc(N=Nc2n[nH]c3ccccc23)cc1
inactive: [10] 95 % of control | [11] 98 % of control | [12] 95 % of control

CCOC1(C)OC2OC(COC(c3ccccc3)(c3ccccc3)c3ccccc3)C(O)C(O)C2O1 (centres undefined)
inactive: dose: 12.5 mg/kg/injection, schedule: Q01DX009 (ip), vehicle: other 97 % of control | dose: 25.0 mg/kg/injection, schedule: Q01DX009 (ip), vehicle: other 103 % of control | dose: 50.0 mg/kg/injection, schedule: Q01DX009 (ip), vehicle: other 101 % of control | dose: 100.0 mg/kg/injection, schedule: Q01DX009 (ip), vehicle: other 98 % of control | dose: 200.0 mg/kg/injection, schedule: Q01DX009 (ip), vehicle: other 101 % of control

Cc1cc(Cl)ccc1NC(=O)Nc1c(Oc2ccc(Cl)cc2)ccc(Cl)c1S(=O)(=O)O
inactive: dose: 100.0 mg/kg/injection, schedule: Q01DX001 (ip), vehicle: saline 96 % of control | dose: 200.0 mg/kg/injection, schedule: Q01DX001 (ip), vehicle: saline 98 % of control
